ChEMBL document CHEMBL5724696, “Autophagy assay results for EUbOPEN Chemogenomics Library” (2024)

Tests used:
Format in all cases: functional, Homo sapiens
U2OS [1] = test: (§1) Here: values are normalized to the negative (DMSO; defined as 0% autophagy induction) and positive (250nM Torin1; mTOR inhibitor; defined as maximal inducer of autophagy = 100%) control compounds and represented as % of autophagy induction. […] The impact of autophagy induction on cells is complex and depends on the affected target. As such, the magnitude of a phenotype may not be equally mirrored in the %-value of autophagy induction and vice versa. The dynamics of the induction may indicate the mode of activation: e.g. activation via phosphorylation or a signaling cascade may occur fast, while activation via transcription factors may take considerably longer. […] Of note, treatment concentrations may be sub-optimal for specific compounds, leading to false negative annotations.; details: Culturing Media DMEM, 1 % Penicillin/Streptomycin, 10% Fetal bovin serum Add-On: No, Screening Media Control DMEM, Screening Media Samples DMEM
TERT-RPE1 = test: as §1; details: Culturing Media DMEM/F12 (1:1), 1 % Penicillin/Streptomycin, 10% Fetal bovin serum Add-On: No, Screening Media Control DMEM/F12 (1:1), Screening Media Samples DMEM/F12 (1:1)
U2OS [2] = test: as §1; details: Culturing Media DMEM, 1 % Penicillin/Streptomycin, 10% Fetal bovin serum Add-On: No, Screening Media Control DMEM, Screening Media Samples DMEM; remark: listed apart in the source
[3] = Compound Concentration 0.5 uM, Timepoint 12 hours
[4] = Compound Concentration 0.5 uM, Timepoint 24 hours
[5] = Compound Concentration 0.5 uM, Timepoint 36 hours
[6] = Compound Concentration 0.5 uM, Timepoint 60 hours
[7] = Compound Concentration 2 uM, Timepoint 12 hours
[8] = Compound Concentration 2 uM, Timepoint 24 hours
[9] = Compound Concentration 2 uM, Timepoint 36 hours
[10] = Compound Concentration 2 uM, Timepoint 60 hours
[11] = Compound Concentration 10 uM, Timepoint 12 hours
[12] = Compound Concentration 10 uM, Timepoint 24 hours
[13] = Compound Concentration 10 uM, Timepoint 36 hours
[14] = Compound Concentration 10 uM, Timepoint 60 hours

SMILES	autophagy induction (U2OS [1]; [3]) [%]	autophagy induction (U2OS [1]; [4]) [%]	autophagy induction (U2OS [1]; [5]) [%]	autophagy induction (U2OS [1]; [6]) [%]	autophagy induction (U2OS [1]; [7]) [%]	autophagy induction (U2OS [1]; [8]) [%]	autophagy induction (U2OS [1]; [9]) [%]	autophagy induction (U2OS [1]; [10]) [%]	autophagy induction (U2OS [1]; [11]) [%]	autophagy induction (U2OS [1]; [12]) [%]	autophagy induction (U2OS [1]; [13]) [%]	autophagy induction (U2OS [1]; [14]) [%]	autophagy induction (TERT-RPE1; [3]) [%]	autophagy induction (TERT-RPE1; [4]) [%]	autophagy induction (TERT-RPE1; [5]) [%]	autophagy induction (TERT-RPE1; [6]) [%]	autophagy induction (TERT-RPE1; [7]) [%]	autophagy induction (TERT-RPE1; [8]) [%]	autophagy induction (TERT-RPE1; [9]) [%]	autophagy induction (TERT-RPE1; [10]) [%]	also measured
N#Cc1c[nH]c2c(C(=O)N3CCN(CCc4ccc(F)cc4)CC3)cccc12 [PRUVANSERIN]	-6.178	-8.725	-11.774	-11.1897	-0.7991	-1.585	-5.754	-9.463	-2.951	1.579	-6.9473	-6.12	-0.9197	-7.874	-10.0141	-14.8375	-6.1985	-7.924	-9.7251	-15.807	autophagy induction (TERT-RPE1; [11]): -0.3174%; autophagy induction (TERT-RPE1; [12]): -4.163%; autophagy induction (TERT-RPE1; [13]): -3.571%; autophagy induction (TERT-RPE1; [14]): -3.5258%; autophagy induction (U2OS [2]; [3]): -2.928%; autophagy induction (U2OS [2]; [4]): -3.235%; autophagy induction (U2OS [2]; [5]): -1.344%; autophagy induction (U2OS [2]; [6]): -1.7078%; autophagy induction (U2OS [2]; [7]): -0.5957%; autophagy induction (U2OS [2]; [8]): -2.183%; autophagy induction (U2OS [2]; [9]): -3.588%; autophagy induction (U2OS [2]; [10]): -2.524%; autophagy induction (U2OS [2]; [11]): 4.878%; autophagy induction (U2OS [2]; [12]): -0.06233%; autophagy induction (U2OS [2]; [13]): -0.9102%; autophagy induction (U2OS [2]; [14]): -2.945%
Cc1csc(NC(=O)c2cc(F)cc(Oc3cncnc3)c2)n1	-16.3524	-14.7733	-11.9866	-8.75	-9.821	-11.197	-11.4826	-11.3338	-1.626	-3.326	-2.706	-7.422	-6.573	-11.4508	-15.1452	-20.0235	-3.733	-9.437	-10.535	-13.1148	autophagy induction (TERT-RPE1; [11]): -2.429%; autophagy induction (TERT-RPE1; [12]): -5.833%; autophagy induction (TERT-RPE1; [13]): -5.079%; autophagy induction (TERT-RPE1; [14]): -4.061%; autophagy induction (U2OS [2]; [3]): -6.672%; autophagy induction (U2OS [2]; [4]): -2.592%; autophagy induction (U2OS [2]; [5]): -1.939%; autophagy induction (U2OS [2]; [6]): -1.765%; autophagy induction (U2OS [2]; [7]): -5.1627%; autophagy induction (U2OS [2]; [8]): -3.72%; autophagy induction (U2OS [2]; [9]): -2.553%; autophagy induction (U2OS [2]; [10]): -1.843%; autophagy induction (U2OS [2]; [11]): -2.289%; autophagy induction (U2OS [2]; [12]): -0.7242%; autophagy induction (U2OS [2]; [13]): -0.5379%; autophagy induction (U2OS [2]; [14]): -1.609%
